Assay [1] deals with endogenous NAMPT in U2OS cells. Briefly: Cellular NAD+ modulation assay (NAD/NADH-Glo, U2OS cells). It counts as cell-based. The conditions noted are these: Homo sapiens; for maximal fold induction: read-out: Cellular Emax. The method in brief:
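Endogenous NAMPT stimulation in U2OS cells treated with compound dilution series for 24 h at 37 °C. Cells lysed with DTAB base, acid-treated 15 min at 60 °C, neutralized, NAD+ read by NAD/NADH-Glo luminescence after 40 min at room temperature. EC50 and Emax (fold over DMSO) derived.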

Assay [2] deals with T1, human enzyme NAMPT (full length) (Homo sapiens, UniProt P43490).
T1 construct: human enzyme NAMPT (full length)
T1 sequence (P43490 whole entry): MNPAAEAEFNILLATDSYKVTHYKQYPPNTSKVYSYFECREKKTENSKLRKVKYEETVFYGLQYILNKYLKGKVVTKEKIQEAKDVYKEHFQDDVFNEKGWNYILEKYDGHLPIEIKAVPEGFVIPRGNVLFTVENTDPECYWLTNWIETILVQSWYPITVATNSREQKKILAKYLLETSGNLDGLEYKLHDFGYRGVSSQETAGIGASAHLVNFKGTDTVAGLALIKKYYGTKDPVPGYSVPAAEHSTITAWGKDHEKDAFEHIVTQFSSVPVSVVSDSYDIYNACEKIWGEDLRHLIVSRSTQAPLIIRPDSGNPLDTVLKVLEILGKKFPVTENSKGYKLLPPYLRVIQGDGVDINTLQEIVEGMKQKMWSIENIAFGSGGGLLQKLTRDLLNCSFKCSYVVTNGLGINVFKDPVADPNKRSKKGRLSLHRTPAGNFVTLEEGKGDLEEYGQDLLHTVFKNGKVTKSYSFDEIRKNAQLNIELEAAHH
Briefly: NMN fluorescence biochemical assay (stimulation of NMN synthesis by NAMPT). To be noted: for EC50: concentration giving half-maximal activation, read-out: Enzymatic EC50; for Enzymatic Emax: fold change of maximal activation compared to DMSO. The method in brief:
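Full-length human NAMPT (100 nM) was preincubated 15 min at 37 °C with compound in 50 mM Tris-HCl pH 7.5, 10 mM MgCl2, 2 mM DTT, then reacted 1 h at 37 °C with 50 μM NAM, 100 μM PRPP, 4 mM ATP (stated solution concentrations). NMN was derivatised with acetophenone/KOH then formic acid and read at Ex/Em 382/445 nm; EC50 and Emax (fold over DMSO) reported.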

[3] abbreviates: 24 hours incubation with compound.
Where [4] appears, read: NMN synthesis by purified human NAMPT (100 nM).
The mark [5] stands for this setting: 24 hours incubation, cellular NAD+.
[6] abbreviates: NMN fluorescence assay, purified human NAMPT 100 nM.

Results on 18 compounds are retold here after patent US20260078130A1, “NAMPT MODULATORS, PREPARATIONS, AND USES THEREOF” (SIRONAX LTD., priority 2022, published 2026).

Like-named read-outs stand apart in the source and are kept apart here.

On to `O=C1c2ccccc2C(Cc2ccncc2)N1Cc1ccc2[nH]c(=O)oc2c1` (centres unmarked) [Compound 130, 6-((1-oxo-3-(pyridin-4-ylmethyl)isoindolin-2-yl)methyl)benzo[d]oxazol-2(3H)-one], for which, in assay [1] (setting [3]), the 50% effective concentration (EC50) (in general, the concentration giving half of the maximal effect) fell in the range of 0.5 to 5 µM and the maximal fold induction is above 1.5. Moreover, in assay [2] (setting [4]), the concentration giving a half-maximal response (EC50) was at least 5 µM. Besides, in assay [2], the “Enzymatic Emax” value is listed as “B (3≥B>2)”.

As for `O=C1NCC2(CC(CN3C(=O)c4ccccc4C3Cc3c(Cl)nc4sccn34)C2)O1` (centres unmarked) [Compound 469, 2-((1-((6-chloroimidazo[2,1-b]thiazol-5-yl)methyl)-3-oxoisoindolin-2-yl)methyl)-5-oxa-7-azaspiro[3.4]octan-6-one], in assay [1] (setting [5]), the EC50 was below 0.5 µM and the maximal fold induction is above 1.5. Besides, in assay [2] (setting [6]), the half-maximal effective concentration (EC50) lay in the range of 0.5 to 5 µM. Besides, the “Enzymatic Emax” value in assay [2] is reported as “B (3≥B>2)”.

Take `N#Cc1ncccc1CC1c2ccccc2C(=O)N1Cc1ccc2[nH]c(=O)oc2c1` (centres unmarked) [Compound 201, 3-((3-oxo-2-((2-oxo-2,3-dihydrobenzo[d]oxazol-6-yl)methyl)isoindolin-1-yl)methyl) picolinonitrile]: the half-maximal effective concentration (EC50) in assay [1] (setting [3]) was below 0.5 µM; in assay [2] (setting [4]) it was 0.5 to 5 µM. In addition, the maximal fold induction in assay [1] (setting [3]) is above 1.5. For the same compound, in assay [2], the “Enzymatic Emax” value is “A (A>3)”.

For the compound `Cn1ncc(Cl)c1CC1c2ccccc2C(=O)N1C[C@@H]1CC1c1c[nH]nn1` (stereo in doubt) [Compound 548, trans 2-((2-(1H-1,2,3-triazol-4-yl)cyclopropyl)methyl)-3-((4-chloro-1-methyl-1H-pyrazol-5-yl)methyl)isoindolin-1-one], in assay [1] (setting [5]), the half-maximal effective concentration (EC50) is below 0.5 µM and the maximal fold induction is above 1.5. In addition, the “Enzymatic Emax” value in assay [2] is given as “B (3≥B>2)”.

`Cc1ccnc(C#N)c1CC1c2cc(C3CC3)ccc2C(=O)N1Cc1ccc2[nH]nnc2c1` (centres unmarked) [Compound 360, 3-((2-((1H-benzo[d][1,2,3]triazol-5-yl)methyl)-6-cyclopropyl-3-oxoisoindolin-1-yl)methyl)-4-methylpicolinonitrile]: the EC50 in assay [1] (setting [5]) and in assay [2] (setting [6]) was below 0.5 µM each time. Moreover, the maximal fold induction in assay [1] (setting [5]) was above 1.5. For the same compound, the “Enzymatic Emax” value in assay [2] is recorded as “B (3≥B>2)”.

For `CCOc1ccccc1CC1c2ccccc2C(=O)N1Cc1ccc2[nH]c(=O)oc2c1` (centres unmarked) [Compound 166, 6-((1-(2-ethoxybenzyl)-3-oxoisoindolin-2-yl)methyl)benzo[d]oxazol-2(3H)-one], the EC50 in assay [1] (setting [3]) and in assay [2] (setting [4]) was 0.5 to 5 µM in each case. In assay [1] (setting [3]), the maximal fold induction fell in the range of 1.2 to 1.5. The “Enzymatic Emax” value in assay [2] is “B (3≥B>2)”.

As for `Cn1nnc(Cl)c1CC1c2ccccc2C(=O)N1Cc1ccc2[nH]nnc2c1` (centres unmarked) [Compound 334, 2-((1H-benzo[d][1,2,3]triazol-5-yl)methyl)-3-((4-chloro-1-methyl-1H-1,2,3-triazol-5-yl)methyl)isoindolin-1-one], in assay [1] (setting [5]), the EC50 is below 0.5 µM and the maximal fold induction was above 1.5. Further, the EC50 in assay [2] (setting [6]) was in the range of 0.5 to 5 µM. For the same compound, in assay [2], the “Enzymatic Emax” value is recorded as “A (A>3)”.

For the compound `COc1ccc2c(c1)C(C)N(Cc1ccc3[nH]c(=O)oc3c1)C2=O` (single isomer, unassigned) [Compound 243], in assay [1] (setting [3]), the half-maximal effective concentration (EC50) was 0.5 to 5 µM and the maximal fold induction was above 1.5. Also, the EC50 in assay [2] (setting [4]) was at least 5 µM. The “Enzymatic Emax” value in assay [2] is reported as “A (A>3)”.

With `Cn1ncc(Cl)c1CC1c2cc(C(C)(C)O)ccc2C(=O)N1Cc1ccc2[nH]nnc2c1` (centres unmarked) [Compound 382, 2-((1H-benzo[d][1,2,3]triazol-5-yl)methyl)-3-((4-chloro-1-methyl-1H-pyrazol-5-yl)methyl)-5-(2-hydroxypropan-2-yl)isoindolin-1-one], the EC50 in assay [1] (setting [5]) and in assay [2] (setting [6]) was 0.5 to 5 µM in each case. For the same compound, the maximal fold induction in assay [1] (setting [5]) is above 1.5. Moreover, the “Enzymatic Emax” value in assay [2] was “B (3≥B>2)”.

With `Cn1ncc(Cl)c1CC1c2ccccc2C(=O)N1CC1CC2(CNC(=O)S2)C1` (centres unmarked) [Compound 568, 2-((1-((4-chloro-1-methyl-1H-pyrazol-5-yl)methyl)-3-oxoisoindolin-2-yl)methyl)-5-thia-7-azaspiro[3.4]octan-6-one], in assay [1] (setting [5]), the EC50 was below 0.5 µM and the maximal fold induction lay in the range of 1.2 to 1.5. In addition, in assay [2] (setting [6]), the EC50 is below 0.5 µM. In addition, the “Enzymatic Emax” value in assay [2] is “B (3≥B>2)”.

As for `N#Cc1ccccc1CC1c2ccccc2C(=O)N1Cc1ccc(O)c(F)c1` (centres unmarked) [Compound 195, 2-((2-(3-fluoro-4-hydroxybenzyl)-3-oxoisoindolin-1-yl)methyl)benzonitrile], the concentration giving a half-maximal response (EC50) in assay [1] (setting [3]) and in assay [2] (setting [4]) was below 0.5 µM throughout. Moreover, in assay [1] (setting [3]), the maximal fold induction is 1.2 to 1.5. Besides, the “Enzymatic Emax” value in assay [2] is “B (3≥B>2)”.

With `O=C1c2ccccc2CN1Cc1ccc2[nH]c(=O)oc2c1` [Compound 33, 6-((1-oxoisoindolin-2-yl)methyl)benzo[d]oxazol-2(3H)-one], the figures for the EC50 in assay [1] (setting [3]) and in assay [2] (setting [4]) were 5 to 50 µM and at least 5 µM, respectively. Moreover, in assay [1] (setting [3]), the maximal fold induction lay within 1.2 to 1.5. Besides, in assay [2], the “Enzymatic Emax” value is listed as “A (A>3)”.

With `COc1nn(C)c(CC2c3ccccc3C(=O)N2CC2CC3(CNC(=O)O3)C2)c1Cl` (centres unmarked) [Compound 451, 2-((1-((4-chloro-3-methoxy-1-methyl-1H-pyrazol-5-yl)methyl)-3-oxoisoindolin-2-yl)methyl)-5-oxa-7-azaspiro[3.4]octan-6-one], the EC50 in assay [1] (setting [5]) and in assay [2] (setting [6]) was below 0.5 µM throughout. Also, the maximal fold induction in assay [1] (setting [5]) was above 1.5. The “Enzymatic Emax” value in assay [2] is on record as “B (3≥B>2)”.

Turning to `Cn1ncc(Cl)c1CC1c2cc(C(F)F)ccc2C(=O)N1Cc1ccc2[nH]nnc2c1` (centres unmarked) [Compound 435, 2-((1H-benzo[d][1,2,3]triazol-5-yl)methyl)-3-((4-chloro-1-methyl-1H-pyrazol-5-yl)methyl)-5-(difluoromethyl)isoindolin-1-one], the EC50 in assay [1] (setting [5]) and in assay [2] (setting [6]) was below 0.5 µM each time. In assay [1] (setting [5]), the maximal fold induction was above 1.5. Also, in assay [2], the “Enzymatic Emax” value was “A (A>3)”.

As for `O=C1c2ccccc2C(c2ccccc2)N1Cc1ccc2[nH]c(=O)oc2c1` (centres unmarked) [Compound 67, 6-((1-oxo-3-phenylisoindolin-2-yl)methyl)benzo[d]oxazol-2(3H)-one], in assay [1] (setting [3]), the EC50 is 5 to 50 µM and the maximal fold induction fell in the range of 1.2 to 1.5. Besides, the EC50 in assay [2] (setting [4]) is at least 5 µM. For the same compound, the “Enzymatic Emax” value in assay [2] is on record as “B (3≥B>2)”.

As for `O=C1c2ccccc2C(Cc2ccccc2F)N1Cc1ccc2[nH]c(=O)oc2c1` (centres unmarked) [Compound 146, 6-((1-(2-fluorobenzyl)-3-oxoisoindolin-2-yl)methyl)benzo[d]oxazol-2(3H)-one], the concentration giving a half-maximal response (EC50) in assay [1] (setting [3]) and in assay [2] (setting [4]) was below 0.5 µM in each case. Further, the maximal fold induction in assay [1] (setting [3]) is above 1.5. In assay [2], the “Enzymatic Emax” value is “A (A>3)”.

Take `Cn1ncc(Cl)c1CC1c2ccccc2C(=O)N1Cc1ccc(Cl)cc1` (centres unmarked) [Compound 573, 3-((4-chloro-1-methyl-1H-pyrazol-5-yl)methyl)-2-(4-chlorobenzyl)isoindolin-1-one]: in assay [1] (setting [5]), the concentration for a half-maximal effect (EC50) is 5 to 50 µM and the maximal fold induction was at most 1.2. Further, the EC50 in assay [2] (setting [6]) is at least 5 µM. Besides, the “Enzymatic Emax” value in assay [2] is reported as “C (2≥C)”.

On to `COc1ccc(CN2C(=O)c3ccc(Cl)cc3C2Cc2c(C)ncnc2C#N)cn1` (centres unmarked) [Compound 639, 5-((6-chloro-2-((6-methoxypyridin-3-yl)methyl)-3-oxoisoindolin-1-yl)methyl)-6-methylpyrimidine-4-carbonitrile], for which, in assay [1] (setting [5]), the EC50 was in the range of 0.5 to 5 µM and the maximal fold induction is 1.2 to 1.5. For the same compound, the half-maximal effective concentration (EC50) in assay [2] (setting [6]) was at least 5 µM. In assay [2], the “Enzymatic Emax” value is “B (3≥B>2)”.
